From patent publication US9365540B2, “Benzimidazole derivatives as MCH receptor antagonists” (Takeda Pharmaceutical Company Limited, priority 2012, dated 2016)

Tests used:
HepG2 cells = experiment: PLsis (phospholipidosis) inducing potential, NBD-PE uptake; type: cell-based; settings: 24 hr exposure, relative value to 10 μM Amiodarone, maximum value per unit concentration
Procedure: Evaluation of PLsis Inducing Potential
DMEM medium, L-glutamine, penicillin-streptomycin, pyruvic acid, and N-(7-nitrobenz-2-oxa-1,3-diazol-4-yl)-1,2-hexadecanoyl-sn-glycero-3-phosphoethanolamine triethylammonium salt (NBD-PE) were purchased from Invitrogen Corporation. As bovine serum albumin (BSA), a product of Thermo Trace Ltd. (Melbourne, Australia) was used, and as Amiodarone, a product of ICN (Costa Mesa, Calif.) was used. A test compound was used in the form of a 10 mM DMSO solution.
FBS was added at a final concentration of 5 vol % to DMEM medium supplemented with L-glutamine, pyruvic acid and penicillin-streptomycin and subjected to the experiment. Culture was performed using 5% carbon dioxide gas-95% air as a gas phase in a CO2 incubator at 37° C. HepG2 cells were suspended in a culture medium at 50×10^4 cells/mL, plated in a 96 well plate at 50 μL/well and precultured for 24 hr. After preculture, the culture medium was removed, a culture medium containing 60 μM NBD-PE was added at 50 μL/well, and a culture medium containing 0.6 μM or 20 μM test compounds were each added at 50 μL/well to HepG2 cells, and the cells were cultured for 24 hr. As a positive control, Amiodarone was used at a final concentration of 10 μM.
After exposure to the test compound for 24 hr, the fluorescence intensity (Ex. 485 nm, Em. 538 nm) of NBD-PE uptaken by the cells was measured by a fluorometer. The measurement value with addition of 0 μM test compound solution was subtracted as a blank, a relative value to the measurement 5 value with addition of 10 μM Amiodarone was calculated, and the maximum value per unit concentration of the test compound was obtained as a phospholipidosis (PLsis) inducing potential.

HERG = biological target: T1, HERG (Homo sapiens, UniProt Q12809); experiment: HERG inhibitory activity, whole-cell patch clamp; type: cell-based; settings: 10 μM test compound; HERG.T.HEK cells; peak tail current
T1 construct: host or cells: HERG.T.HEK (HEK cells, G418 selection)
Source text: Evaluation of HERG Inhibitory Activity
MEM medium, MEM nonessential amino acid solution, sodium pyruvate solution and G418 sulfate solution (Geneticin) were purchased from Invitrogen Corporation (Carlsbad, Calif.). Bovine serum albumin (BSA, Fatty Acid Free) was a product of Wako Pure Chemical Industries, Ltd. (Osaka, Japan). Fetal calf serum (FCS) was a product of Trau Scientific Ltd. (Melbourne, Australia).
As HERG-expressing cell HERG.T.HEK, the cell obtained from Wisconsin ALUMNI Research Foundation was used. HERG.T.HEK was maintained and passaged at 37° C. in the presence of 5% CO2 using an MEM medium containing 10% FCS, 1 mM MEM nonessential amino acid, 1 mM sodium pyruvate and 500 μg/ml Geneticin.
80-90% confluent cells were collected by a trypsin treatment and plated on an IVF dish (Falcon, Franklin Lakes, N.J.). […] A preliminary stimulation was applied and the HERG electric current value (peak tail current) was measured when the electric current waveform was stabilized.
For measurement of the HERG electric current with addition of the test compound, the cells were first perfused with the extracellular fluid and, when the waveform was stabilized, the cells were perfused with an extracellular fluid containing 10 μM of a test compound. When the electric current waveform was stabilized under respective perfuse conditions, the HERG electric current was measured.
The HERG electric current inhibitory rate (%) of the test compound was calculated with the HERG electric current value without addition of the test compound as 100%.

T1 sequence (Q12809 whole entry): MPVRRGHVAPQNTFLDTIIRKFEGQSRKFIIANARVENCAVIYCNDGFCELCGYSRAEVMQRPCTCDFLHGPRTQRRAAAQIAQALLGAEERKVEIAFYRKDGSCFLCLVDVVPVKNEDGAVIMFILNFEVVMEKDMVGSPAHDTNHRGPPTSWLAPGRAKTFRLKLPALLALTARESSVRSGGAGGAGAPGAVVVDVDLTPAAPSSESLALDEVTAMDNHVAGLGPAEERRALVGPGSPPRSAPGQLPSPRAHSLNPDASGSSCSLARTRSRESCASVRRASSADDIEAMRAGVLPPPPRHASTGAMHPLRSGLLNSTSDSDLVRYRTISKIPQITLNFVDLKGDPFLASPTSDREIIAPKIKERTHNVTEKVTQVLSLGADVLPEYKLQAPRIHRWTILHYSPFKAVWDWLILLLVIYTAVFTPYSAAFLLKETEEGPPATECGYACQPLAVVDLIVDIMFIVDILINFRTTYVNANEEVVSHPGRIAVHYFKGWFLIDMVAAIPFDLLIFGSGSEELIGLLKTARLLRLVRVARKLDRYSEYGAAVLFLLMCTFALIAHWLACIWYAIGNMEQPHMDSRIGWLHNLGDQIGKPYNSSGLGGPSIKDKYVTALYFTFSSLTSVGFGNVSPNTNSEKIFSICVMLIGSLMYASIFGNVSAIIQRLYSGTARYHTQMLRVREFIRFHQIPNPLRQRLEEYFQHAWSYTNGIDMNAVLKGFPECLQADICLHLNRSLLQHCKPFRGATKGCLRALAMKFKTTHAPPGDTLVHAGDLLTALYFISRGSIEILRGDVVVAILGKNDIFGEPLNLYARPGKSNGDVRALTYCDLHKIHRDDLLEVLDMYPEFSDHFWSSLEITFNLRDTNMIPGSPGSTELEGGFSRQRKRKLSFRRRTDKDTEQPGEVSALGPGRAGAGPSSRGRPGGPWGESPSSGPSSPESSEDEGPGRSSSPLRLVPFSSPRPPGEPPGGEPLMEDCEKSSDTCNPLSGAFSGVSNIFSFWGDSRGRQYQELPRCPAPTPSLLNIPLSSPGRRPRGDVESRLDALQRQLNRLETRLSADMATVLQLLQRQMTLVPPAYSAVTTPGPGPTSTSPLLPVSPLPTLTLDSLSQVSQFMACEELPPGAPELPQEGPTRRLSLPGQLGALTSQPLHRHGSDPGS

SMILES	PLsis inducing potential (HepG2 cells)	HERG inhibitory action (%) (HERG)
Cn1c(C2CC2)nc2ccc(-n3ccc(OCc4ccc(F)cc4)cc3=O)cc21 [Example 2, 1-(2-Cyclopropyl-1-methyl-1H-benzimidazol-6-yl)-4-((4-fluorobenzyl)oxy)pyridin-2(1H)-one]	2.2	27.3
Cc1nc2ccc(-n3ccc(OCc4ccc(F)cc4)cc3=O)cc2n1C [Example 254, 1-(1,2-Dimethyl-1H-benzimidazol-6-yl)-4-((4-fluorobenzyl)oxy)pyridin-2(1H)-one]	1.7	26.4
CCc1nc2ccc(-n3ccc(OCc4ccc(F)cc4)cc3=O)cc2n1C [Example 63, 1-(2-Ethyl-1-methyl-1H-benzimidazol-6-yl)-4-((4-fluorobenzyl)oxy)pyridin-2(1H)-one]	1.6	23.0
